The source of these data is patent US4220643A, “Nitrosourea pentose compounds” (priority 1977, dated 1980).

The test system of one series is experimental tumors. The following applies: wide variety of experimental tumors; refers to U.S. Pat. No. 4,086,415; cited from earlier work.
Another series has as its system Leukemia L 1210 cells. The series can be described thus: Anti-leukemic activity on Leukemia L 1210 in mice (60 days observation). The class given is in vivo, mice (male BDF1). The settings on record: for ILS (percentage increase in life-span) / Mean survival days: 60 days observation. The protocol:
The anti-leukemic activity of both the anomers of this invention was tested on Leukemia L 1210 in mice, details of which are given below. By way of comparison, the 1-methyl homologue of the β-anomer of this invention, i.e. 1-methyl-1-nitroso-3-(β-D-ribofuranosyl) urea (refer to T. Suami et al., Japanese Patent Prepublication No. 83365/75), was tested in a similar way.
Male BDF1 mice, aged about 7-weeks old and weighing 22±3 g were used in groups of three animals each for the test of compounds No. 1 and No. 2 or of two animals each for the test of compound No. 3.
Leukemia L 1210 cells were used. For the test of compounds No. 1 and No. 2, 2×10^6 cells/0.04 ml/mouse were intraperitoneally inoculated and for the test of compound No. 3, 1.8×10^6 /0.04 ml/mouse were intraperitoneally inoculated.
The test compound was dissolved in a physiological salt solution to give a series of solutions in predetermined concentrations and 0.1 ml of the each solution was administered intraperitoneally to each mouse once a day from the 24th hour after the tumor cell inoculation for 3 consecutive days for the test of compounds No. 1 and No. 2 or for 2 consecutive days for the test of compound No. 3. The anti-leukemic activity of the compounds tested was assessed by mean survival days, percentage increase in life-span, number of survivors after 60 days observation and the volume of ascites. The percentage increase in life-span (ILS) was calculated as follows: […]
T: The mean survival days of the treated animals
C: The mean survival days of the untreated animals
The control test for this purpose was carried out in the same way as that used for the test of compounds No. 1 and No. 2 or for the test of compound No. 3 except that 0.1 ml of the physiological salt solution was administered in place of the solution of the test compound.

Series [1] is described as follows: Acute toxicity in intraperitoneal administration to BDF1 mice. The following applies: mouse, in vivo, ip. From the text: The nitrosourea compounds according to this invention are further characterized by their low toxicity. Thus, acute toxicity of the compounds in intraperitoneal administration to BDF1 mice is as follows: […]
[2] abbreviates: 1 mg/kg i.p. once daily, 3 consecutive days.
Where [3] appears, read: 2 mg/kg i.p. once daily, 3 consecutive days.
The mark [4] stands for this setting: 2 mg/kg i.p. once daily, 3 consecutive days, untreated control 4.5 ml.
Setting [5] is: 4 mg/kg i.p. once daily, 3 consecutive days.
[6] abbreviates: 4 mg/kg i.p. once daily, 3 consecutive days, untreated control 4.5 ml.
Setting [7] is: 8 mg/kg i.p. once daily, 3 consecutive days.
Setting [8] is: 8 mg/kg i.p. once daily, 3 consecutive days, untreated control 4.5 ml.
[9] abbreviates: 16 mg/kg i.p. once daily, 3 consecutive days.
Setting [10] is: 16 mg/kg i.p. once daily, 3 consecutive days, untreated control 4.5 ml.
Where [11] appears, read: dose not given, i.p. once daily, 3 consecutive days.
The mark [12] stands for this setting: 50 mg/kg i.p. once daily, 2 consecutive days.
[13] abbreviates: 100 mg/kg i.p. once daily, 2 consecutive days.
Setting [14] is: 200 mg/kg i.p. once daily, 2 consecutive days.
[15] abbreviates: 250 mg/kg i.p. once daily, 2 consecutive days.

With `O=NN(CCCl)C(=O)N[C@@H]1O[C@H](CO)[C@@H](O)[C@H](O)[C@H]1O` [GANU, 1-(2-chloroethyl)-3-(β-D-glucopyranosyl)-1-nitrosourea], the “Antitumor activity, in words” value in the series with experimental tumors is reported as “broad spectrum of antitumor activity against a wide variety of experimental tumors”.

`O=NN(CCCl)C(=O)N[C@H]1O[C@H](CO)[C@@H](O)[C@H]1O` [compound 1, 1-(2-chloroethyl)-1-nitroso-3-(α-D-ribofuranosyl) urea]: the “Number of survivors (after 60 days)” value in the series on Leukemia L 1210 cells (setting [2]) is reported as 0/3; in the series with Leukemia L 1210 cells (setting [3]) it was 0/3; with Leukemia L 1210 cells (setting [5]), 2/3; in the series on Leukemia L 1210 cells (setting [7]), 2/3; in the series on Leukemia L 1210 cells (setting [9]), 0/3. Also, the “ILS (percentage increase in life-span)” value in the series with Leukemia L 1210 cells (setting [2]) was 37.0%; in the series with Leukemia L 1210 cells (setting [3]), 50.0%; with Leukemia L 1210 cells (setting [5]) it was > 383.0%; in the series with Leukemia L 1210 cells (setting [7]), > 323.0%; with Leukemia L 1210 cells (setting [9]), 13.0%. The Mean survival days with Leukemia L 1210 cells (setting [2]) was 13.7 days; in the series on Leukemia L 1210 cells (setting [3]), 15.3 days; in the series on Leukemia L 1210 cells (setting [5]), > 48.3 days; in the series on Leukemia L 1210 cells (setting [7]), > 42.3 days; in the series on Leukemia L 1210 cells (setting [9]), 11.3 days. In addition, the Volume of ascites in the series on Leukemia L 1210 cells (1 mg/kg i.p. once daily, 3 consecutive days, untreated control 4.5 ml) came to 1.7 mL; with Leukemia L 1210 cells (setting [4]) it was 0 mL; with Leukemia L 1210 cells (setting [6]) it was 0 mL; in the series on Leukemia L 1210 cells (setting [8]), 0 mL; with Leukemia L 1210 cells (setting [10]) it was 0 mL. The LD50 (usually the dose at which mortality reaches 50%) in series [1] turned out to be 34 mg/kg.

Take `O=NN(CCCl)C(=O)N[C@@H]1O[C@H](CO)[C@@H](O)[C@H]1O` [compound 2, 1-(2-chloroethyl)-1-nitroso-3-(β-D-ribofuranosyl) urea]: the “Number of survivors (after 60 days)” value in the series on Leukemia L 1210 cells (setting [3]) is given as 1/3; in the series with Leukemia L 1210 cells (setting [5]), 2/3; in the series on Leukemia L 1210 cells (setting [7]) it was 3/3; in the series on Leukemia L 1210 cells (setting [9]), 0/3; in the series on Leukemia L 1210 cells (setting [11]), 0/3. The “ILS (percentage increase in life-span)” value in the series on Leukemia L 1210 cells (setting [3]) is listed as > 223.0%; with Leukemia L 1210 cells (setting [5]) it was > 360.0%; in the series with Leukemia L 1210 cells (setting [7]), > 500.0%; in the series with Leukemia L 1210 cells (setting [9]), -13.0%; in the series with Leukemia L 1210 cells (setting [11]) it was 53.0%. In addition, the Mean survival days in the series with Leukemia L 1210 cells (setting [3]) was > 32.3 days; in the series with Leukemia L 1210 cells (setting [5]) it was > 46.0 days; in the series with Leukemia L 1210 cells (setting [7]) it was > 60.0 days; with Leukemia L 1210 cells (setting [9]), 8.7 days; in the series with Leukemia L 1210 cells (setting [11]) it was 15.3 days. The Volume of ascites in the series on Leukemia L 1210 cells (setting [4]) worked out at 0 mL; in the series on Leukemia L 1210 cells (setting [6]) it was 0 mL; in the series with Leukemia L 1210 cells (setting [8]), 0 mL; with Leukemia L 1210 cells (setting [10]), 0 mL; with Leukemia L 1210 cells (dose not given, i.p. once daily, 3 consecutive days, untreated control 4.5 ml) it was 2.5 mL. For the same compound, the 50% lethal dose (LD50) in series [1] worked out at 30 mg/kg.

For the compound `CN(N=O)C(=O)N[C@@H]1O[C@H](CO)[C@@H](O)[C@H]1O` [compound 3, 1-methyl-1-nitroso-3-(β-D-ribofuranosyl) urea, reference compound], the “Number of survivors (after 60 days)” value in the series with Leukemia L 1210 cells (setting [12]), in the series with Leukemia L 1210 cells (setting [13]), in the series on Leukemia L 1210 cells (setting [14]) and with Leukemia L 1210 cells (setting [15]) was 0/2 each time. The “ILS (percentage increase in life-span)” value is recorded as 50.0% in the series on Leukemia L 1210 cells (setting [12]), 50.0% with Leukemia L 1210 cells (setting [13]), 80.0% in the series on Leukemia L 1210 cells (setting [14]) and 15.0% in the series with Leukemia L 1210 cells (setting [15]). In addition, the Mean survival days amounted to 15.0 days in the series on Leukemia L 1210 cells (setting [12]), 15.0 days with Leukemia L 1210 cells (setting [13]), 18.0 days in the series with Leukemia L 1210 cells (setting [14]) and 11.5 days in the series on Leukemia L 1210 cells (setting [15]). The Volume of ascites stood at 4.6 mL with Leukemia L 1210 cells (50 mg/kg i.p. once daily, 2 consecutive days, untreated control 5.3 ml); 0.7 mL in the series on Leukemia L 1210 cells (100 mg/kg i.p. once daily, 2 consecutive days, untreated control 5.3 ml); 0.3 mL in the series with Leukemia L 1210 cells (200 mg/kg i.p. once daily, 2 consecutive days, untreated control 5.3 ml); 0.6 mL in the series on Leukemia L 1210 cells (250 mg/kg i.p. once daily, 2 consecutive days, untreated control 5.3 ml).
